Reference: ChEMBL document CHEMBL1201862, “PubChem BioAssay data set” (2004)
Activity calls are given as the source filed them.

What was measured:
[1] = target: T1, Bcl-2-like protein 10 (Homo sapiens, UniProt Q9HD36); assay: Bcl-B/TR3 peptide binding disruption – biochemical, fluorescence polarization, FITC-TR3 peptide, selectivity assay for Bfl-1 inhibitor project, primary screen (AID 748);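 also: fluorescence polarization from a fluorescein-labelled TR3 peptide binding purified Bcl-B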
T1 sequence (Q9HD36 whole entry): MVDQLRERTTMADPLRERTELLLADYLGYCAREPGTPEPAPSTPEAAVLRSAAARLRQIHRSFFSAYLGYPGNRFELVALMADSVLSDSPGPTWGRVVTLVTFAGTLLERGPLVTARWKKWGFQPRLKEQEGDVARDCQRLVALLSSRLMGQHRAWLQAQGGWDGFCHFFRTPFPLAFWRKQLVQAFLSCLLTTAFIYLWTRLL

[2] = target: Cytochrome P450 2C9 (Homo sapiens, UniProt P11712)
[3] = target: Cytochrome P450 3A4 (Homo sapiens, UniProt P08684); conditions: Potency;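 also: confirmatory qHTS run detecting inhibitors and substrates of CYP3A4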
Cytochrome P450 3A4, sequence (P08684 whole entry): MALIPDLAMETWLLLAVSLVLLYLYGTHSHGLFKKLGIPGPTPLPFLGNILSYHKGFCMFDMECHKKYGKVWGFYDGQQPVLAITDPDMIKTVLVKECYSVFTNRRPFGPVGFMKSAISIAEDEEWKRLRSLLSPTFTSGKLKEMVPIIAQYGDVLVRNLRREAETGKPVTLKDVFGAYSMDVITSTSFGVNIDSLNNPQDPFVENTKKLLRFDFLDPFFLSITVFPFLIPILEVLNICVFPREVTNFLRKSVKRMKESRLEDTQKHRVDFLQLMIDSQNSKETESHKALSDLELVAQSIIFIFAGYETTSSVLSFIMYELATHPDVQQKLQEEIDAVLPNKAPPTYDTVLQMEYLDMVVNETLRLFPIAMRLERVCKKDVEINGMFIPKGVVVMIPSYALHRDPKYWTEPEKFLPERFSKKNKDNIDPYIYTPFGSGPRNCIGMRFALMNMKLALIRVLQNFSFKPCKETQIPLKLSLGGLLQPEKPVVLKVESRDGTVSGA

[4] = target: T2, Rac GTPase-activating protein 1 (Homo sapiens, UniProt Q9H0H5); assay: blockers of MgcRacGAP-driven Rac1 GTP hydrolysis – biochemical, ADP Hunter fluorescence, primary and confirmatory, confirmation (AID 624330); format: functional
T2 sequence (Q9H0H5 whole entry): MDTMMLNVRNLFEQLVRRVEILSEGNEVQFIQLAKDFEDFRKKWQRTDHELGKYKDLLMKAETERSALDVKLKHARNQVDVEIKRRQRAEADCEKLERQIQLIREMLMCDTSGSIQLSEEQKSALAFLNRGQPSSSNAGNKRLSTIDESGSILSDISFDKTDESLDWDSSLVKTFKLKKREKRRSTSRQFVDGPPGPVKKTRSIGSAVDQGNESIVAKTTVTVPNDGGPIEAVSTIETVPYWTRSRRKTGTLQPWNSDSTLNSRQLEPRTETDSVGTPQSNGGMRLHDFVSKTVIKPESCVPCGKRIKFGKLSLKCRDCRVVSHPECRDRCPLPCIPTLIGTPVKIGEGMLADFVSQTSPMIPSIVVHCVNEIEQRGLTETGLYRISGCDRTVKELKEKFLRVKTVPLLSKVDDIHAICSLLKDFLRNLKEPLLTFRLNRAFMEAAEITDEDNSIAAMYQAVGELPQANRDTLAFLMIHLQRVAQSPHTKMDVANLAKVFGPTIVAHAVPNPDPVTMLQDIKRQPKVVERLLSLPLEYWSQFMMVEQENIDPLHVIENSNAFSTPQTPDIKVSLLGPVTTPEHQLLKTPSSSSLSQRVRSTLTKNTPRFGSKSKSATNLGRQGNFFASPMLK

[5] = target: T3, DNA repair protein RAD52 homolog (Homo sapiens, UniProt P43351); format: functional, biochemical
T3 sequence (P43351 whole entry): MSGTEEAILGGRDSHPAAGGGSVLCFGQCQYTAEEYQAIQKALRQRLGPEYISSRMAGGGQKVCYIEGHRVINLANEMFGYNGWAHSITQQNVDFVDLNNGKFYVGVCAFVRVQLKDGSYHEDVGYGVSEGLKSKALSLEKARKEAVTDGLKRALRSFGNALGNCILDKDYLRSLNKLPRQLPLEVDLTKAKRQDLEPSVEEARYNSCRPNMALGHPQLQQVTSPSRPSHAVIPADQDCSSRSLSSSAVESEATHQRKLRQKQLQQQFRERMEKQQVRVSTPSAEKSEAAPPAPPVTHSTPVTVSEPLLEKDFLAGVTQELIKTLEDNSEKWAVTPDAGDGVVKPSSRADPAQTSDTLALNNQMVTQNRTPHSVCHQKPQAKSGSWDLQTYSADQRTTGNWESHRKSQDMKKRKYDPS

[6] = target: Peroxisome proliferator-activated receptor gamma/Nuclear receptor coactivator 3 (Homo sapiens, UniProt P37231); format: functional;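 also: agonist potency for raising coactivator recruitment to the receptor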
Peroxisome proliferator-activated receptor gamma/Nuclear receptor coactivator 3, sequence (P37231 whole entry): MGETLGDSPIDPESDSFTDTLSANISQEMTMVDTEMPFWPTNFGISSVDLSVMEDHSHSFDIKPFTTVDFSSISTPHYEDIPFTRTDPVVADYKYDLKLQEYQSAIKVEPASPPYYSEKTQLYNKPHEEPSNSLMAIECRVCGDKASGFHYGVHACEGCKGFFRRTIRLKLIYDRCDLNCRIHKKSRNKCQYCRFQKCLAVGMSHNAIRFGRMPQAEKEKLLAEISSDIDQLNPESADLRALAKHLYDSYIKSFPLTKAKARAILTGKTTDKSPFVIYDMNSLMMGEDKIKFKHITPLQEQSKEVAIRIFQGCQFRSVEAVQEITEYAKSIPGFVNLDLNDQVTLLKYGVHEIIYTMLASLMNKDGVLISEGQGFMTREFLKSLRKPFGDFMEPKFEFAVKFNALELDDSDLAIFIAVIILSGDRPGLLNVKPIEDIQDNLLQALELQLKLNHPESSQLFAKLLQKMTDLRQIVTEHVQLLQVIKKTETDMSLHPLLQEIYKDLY
Peroxisome proliferator-activated receptor gamma/Nuclear receptor coactivator 3, sequence (Q9Y6Q9 whole entry, further chain): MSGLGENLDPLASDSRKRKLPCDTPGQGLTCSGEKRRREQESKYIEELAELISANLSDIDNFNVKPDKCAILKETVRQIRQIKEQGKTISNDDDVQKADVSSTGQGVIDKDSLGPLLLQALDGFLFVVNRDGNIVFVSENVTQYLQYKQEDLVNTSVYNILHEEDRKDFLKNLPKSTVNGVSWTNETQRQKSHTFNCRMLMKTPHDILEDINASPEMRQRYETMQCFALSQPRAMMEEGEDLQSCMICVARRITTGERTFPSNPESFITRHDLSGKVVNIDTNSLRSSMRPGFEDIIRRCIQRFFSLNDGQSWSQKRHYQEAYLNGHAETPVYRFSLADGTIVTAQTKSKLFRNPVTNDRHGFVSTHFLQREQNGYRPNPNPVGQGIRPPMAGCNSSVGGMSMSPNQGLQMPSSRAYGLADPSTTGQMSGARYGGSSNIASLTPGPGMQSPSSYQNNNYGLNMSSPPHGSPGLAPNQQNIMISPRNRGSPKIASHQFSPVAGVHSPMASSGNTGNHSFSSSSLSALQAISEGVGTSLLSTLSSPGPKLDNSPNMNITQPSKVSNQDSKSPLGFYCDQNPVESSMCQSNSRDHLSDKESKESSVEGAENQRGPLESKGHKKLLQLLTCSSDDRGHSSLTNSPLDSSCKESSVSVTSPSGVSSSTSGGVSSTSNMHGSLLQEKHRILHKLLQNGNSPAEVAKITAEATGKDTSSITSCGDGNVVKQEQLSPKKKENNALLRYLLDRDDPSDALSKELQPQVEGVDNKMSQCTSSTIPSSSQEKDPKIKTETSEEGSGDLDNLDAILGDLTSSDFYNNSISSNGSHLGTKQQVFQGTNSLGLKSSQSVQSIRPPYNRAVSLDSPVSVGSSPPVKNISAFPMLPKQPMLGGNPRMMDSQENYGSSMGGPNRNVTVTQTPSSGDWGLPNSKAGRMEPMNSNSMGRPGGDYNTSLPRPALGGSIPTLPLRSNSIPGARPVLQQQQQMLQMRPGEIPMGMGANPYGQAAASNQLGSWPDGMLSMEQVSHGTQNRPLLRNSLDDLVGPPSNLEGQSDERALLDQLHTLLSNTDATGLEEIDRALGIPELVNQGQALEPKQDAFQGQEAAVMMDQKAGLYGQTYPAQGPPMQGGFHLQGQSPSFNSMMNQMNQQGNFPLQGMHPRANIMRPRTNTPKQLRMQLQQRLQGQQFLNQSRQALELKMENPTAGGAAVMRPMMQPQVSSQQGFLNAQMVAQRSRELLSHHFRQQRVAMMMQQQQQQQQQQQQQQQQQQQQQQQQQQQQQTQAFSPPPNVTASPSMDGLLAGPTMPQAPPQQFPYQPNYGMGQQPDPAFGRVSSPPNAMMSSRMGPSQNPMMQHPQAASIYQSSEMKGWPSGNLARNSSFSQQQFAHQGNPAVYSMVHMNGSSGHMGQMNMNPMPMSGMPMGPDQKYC

[7] = target: Peroxisome proliferator-activated receptor gamma/Nuclear receptor coactivator 1 (Homo sapiens, UniProt P37231); format: functional;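 also: agonist potency as compounds enhance coactivator SRC-1 recruitment to PPARgamma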
Peroxisome proliferator-activated receptor gamma/Nuclear receptor coactivator 1, sequence (P37231 whole entry): as the sequence (P37231 whole entry) above
Peroxisome proliferator-activated receptor gamma/Nuclear receptor coactivator 1, sequence (Q15788 whole entry, further chain): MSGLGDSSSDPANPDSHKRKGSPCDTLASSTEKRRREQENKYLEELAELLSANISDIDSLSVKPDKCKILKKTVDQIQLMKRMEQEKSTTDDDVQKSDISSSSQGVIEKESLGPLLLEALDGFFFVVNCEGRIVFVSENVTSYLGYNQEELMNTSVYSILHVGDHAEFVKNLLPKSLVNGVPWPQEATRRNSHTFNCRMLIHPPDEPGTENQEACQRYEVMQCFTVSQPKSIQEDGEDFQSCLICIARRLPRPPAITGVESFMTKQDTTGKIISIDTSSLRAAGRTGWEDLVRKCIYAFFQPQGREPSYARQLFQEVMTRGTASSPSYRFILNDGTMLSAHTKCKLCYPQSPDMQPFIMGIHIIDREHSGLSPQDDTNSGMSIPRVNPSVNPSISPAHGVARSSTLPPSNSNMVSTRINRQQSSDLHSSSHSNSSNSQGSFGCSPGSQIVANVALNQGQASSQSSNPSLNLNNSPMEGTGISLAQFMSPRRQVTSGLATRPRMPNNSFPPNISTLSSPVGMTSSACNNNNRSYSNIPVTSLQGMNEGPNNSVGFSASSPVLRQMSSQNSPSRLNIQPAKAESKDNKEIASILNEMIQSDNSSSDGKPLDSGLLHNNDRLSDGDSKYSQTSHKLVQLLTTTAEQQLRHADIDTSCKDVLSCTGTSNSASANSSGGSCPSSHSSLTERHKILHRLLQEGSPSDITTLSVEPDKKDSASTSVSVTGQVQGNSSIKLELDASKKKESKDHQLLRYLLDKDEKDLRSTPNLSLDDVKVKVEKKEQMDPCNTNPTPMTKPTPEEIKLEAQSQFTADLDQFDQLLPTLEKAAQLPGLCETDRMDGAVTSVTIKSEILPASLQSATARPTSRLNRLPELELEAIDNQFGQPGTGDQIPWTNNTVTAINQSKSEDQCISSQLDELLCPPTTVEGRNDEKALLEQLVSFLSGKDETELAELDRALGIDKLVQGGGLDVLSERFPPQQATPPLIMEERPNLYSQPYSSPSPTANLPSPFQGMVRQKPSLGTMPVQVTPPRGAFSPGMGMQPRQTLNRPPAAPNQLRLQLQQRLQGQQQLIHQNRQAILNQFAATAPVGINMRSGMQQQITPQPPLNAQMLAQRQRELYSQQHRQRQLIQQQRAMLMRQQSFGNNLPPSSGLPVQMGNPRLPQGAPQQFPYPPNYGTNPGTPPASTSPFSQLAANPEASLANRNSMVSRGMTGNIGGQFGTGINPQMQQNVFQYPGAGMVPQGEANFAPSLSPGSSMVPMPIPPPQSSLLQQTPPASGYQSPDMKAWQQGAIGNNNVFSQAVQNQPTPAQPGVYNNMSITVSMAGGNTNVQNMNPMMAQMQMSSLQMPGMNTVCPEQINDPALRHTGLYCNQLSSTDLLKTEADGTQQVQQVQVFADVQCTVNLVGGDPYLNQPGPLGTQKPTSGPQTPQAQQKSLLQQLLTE

[8] = target: Peroxisome proliferator-activated receptor gamma/Nuclear receptor coactivator 2 (Homo sapiens, UniProt P37231); format: functional;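 also: agonist potency for raising coactivator recruitment to the receptor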
[9] = target: Induced myeloid leukemia cell differentiation protein Mcl-1 (Homo sapiens, UniProt Q07820); format: functional
Induced myeloid leukemia cell differentiation protein Mcl-1, sequence (Q07820 whole entry, the tested form may be a part): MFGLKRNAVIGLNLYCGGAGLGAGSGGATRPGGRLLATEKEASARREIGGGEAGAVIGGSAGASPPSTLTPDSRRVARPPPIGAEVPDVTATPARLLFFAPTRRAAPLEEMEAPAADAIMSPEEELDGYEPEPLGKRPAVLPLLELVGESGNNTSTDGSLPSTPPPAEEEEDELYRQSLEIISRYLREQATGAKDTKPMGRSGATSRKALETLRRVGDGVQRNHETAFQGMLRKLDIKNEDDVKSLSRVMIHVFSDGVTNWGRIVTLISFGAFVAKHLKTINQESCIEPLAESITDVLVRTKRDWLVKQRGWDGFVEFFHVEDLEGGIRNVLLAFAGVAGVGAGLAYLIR

[10] = target: T4, Carboxy-terminal domain RNA polymerase II polypeptide A small phosphatase 1 (Homo sapiens, UniProt Q9GZU7); assay: CTDSP1 inhibitors, concentration-response, biochemical, absorbance readout, ultra-high-throughput screen actives (AID 540297); format: functional
T4 sequence (Q9GZU7 whole entry): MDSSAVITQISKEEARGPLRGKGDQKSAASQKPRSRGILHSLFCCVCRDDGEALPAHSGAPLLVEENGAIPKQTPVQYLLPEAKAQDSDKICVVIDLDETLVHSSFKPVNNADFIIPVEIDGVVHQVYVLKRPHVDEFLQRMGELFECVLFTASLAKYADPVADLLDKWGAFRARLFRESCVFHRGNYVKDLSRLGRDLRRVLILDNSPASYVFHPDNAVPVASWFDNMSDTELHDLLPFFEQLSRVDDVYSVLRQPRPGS

[11] = target: T5, fMet-Leu-Phe receptor (Homo sapiens, UniProt P21462); assay: formyl peptide receptor binders – dose response (AID 519); format: functional
T5 sequence (P21462 whole entry): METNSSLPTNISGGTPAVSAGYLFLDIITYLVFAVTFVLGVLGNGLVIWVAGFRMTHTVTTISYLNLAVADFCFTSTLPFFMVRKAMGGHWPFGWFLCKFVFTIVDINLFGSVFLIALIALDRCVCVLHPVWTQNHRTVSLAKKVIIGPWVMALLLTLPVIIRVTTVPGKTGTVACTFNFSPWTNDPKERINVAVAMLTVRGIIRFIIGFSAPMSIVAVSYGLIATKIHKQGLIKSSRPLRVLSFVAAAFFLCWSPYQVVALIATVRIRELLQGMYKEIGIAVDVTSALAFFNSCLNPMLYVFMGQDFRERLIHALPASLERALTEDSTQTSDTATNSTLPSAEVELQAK

[12] = target: NAD-dependent protein deacylase sirtuin-5, mitochondrial (Homo sapiens, UniProt Q9NXA8); assay: sirtuin-5 deacylation blockers, concentration series – biochemical, fluorescence imaging, cherry-pick, set 5, dose response (AID 720591);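 also: desuccinylation of succinyl peptide AMC substrate read as fluorescence after trypsin release; potency of inhibitors that lower fluorescence and may act on trypsin instead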
NAD-dependent protein deacylase sirtuin-5, mitochondrial, sequence (Q9NXA8 whole entry): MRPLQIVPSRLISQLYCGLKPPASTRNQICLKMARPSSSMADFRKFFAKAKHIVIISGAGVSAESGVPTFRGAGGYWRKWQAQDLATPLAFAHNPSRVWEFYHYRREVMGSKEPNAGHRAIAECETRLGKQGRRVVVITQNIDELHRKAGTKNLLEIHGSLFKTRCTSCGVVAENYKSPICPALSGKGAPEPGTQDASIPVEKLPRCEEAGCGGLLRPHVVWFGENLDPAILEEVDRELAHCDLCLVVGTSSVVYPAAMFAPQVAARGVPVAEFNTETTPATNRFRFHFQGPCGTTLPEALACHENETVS

[13] = growth inhibition of PfATP4-mutant resistant parasites – NITD609-resistant line, SYBR Green, dry powder, dose response (AID 1159571); format: functional, cell-based;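 also: parasites synchronized at ring stage by sorbitol before testing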
[14] = P. falciparum Dd2 growth inhibitors, dose response, SYBR Green, cherry-picked samples (AID 1159567); format: functional, cell-based
[15] = Dd2 malaria parasite growth inhibition potency – SYBR Green, dry powder samples, dose response (AID 1159566); format: functional, cell-based;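 also: potency for growth inhibition with lower SYBR green DNA signal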
[16] = growth inhibition of yeast DHODH-expressing 3D7 parasites – SYBR Green, dry powder samples, dose response (AID 1159570); format: functional, cell-based;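 also: parasite growth measured after 72 hours of compound exposure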
[17] = toxicity to human hepatoma HepG2 cells – cell-based, cherry-picked samples, cytotoxicity control, dose response (AID 1159577); format: functional
[18] = Trypanosoma cruzi growth suppression in host cells – NIH3T3 host cells, beta-gal luminescence, confirmation (AID 2044); format: functional, cell-based;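 also: intracellular parasites grown in NIH/3T3 mouse fibroblasts as host cells; luminescent beta-galactosidase reporter signal from transgenic T. cruzi replicating inside host cells; inhibitors lower the luminescence signal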
[19] = NIH3T3 cell viability loss – ATP luminescence, mouse fibroblasts, counter-screen, dose response (AID 2010); format: functional, cell-based;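 also: cells exposed to compound for about 90 hours before reading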
[20] = tested on: BJ; assay: cells; format: functional, cell-based; conditions: Homo sapiens
[21] = DRD fibroblast viability loss – cell-based, non-viral oncogenic, luminescence, dose response (AID 1934); format: functional; conditions: Homo sapiens
[22] = tested on: BJ; assay: BJ-TERT fibroblast viability loss – cell-based, RAS-independent, luminescence, dose response (AID 1933); format: functional; conditions: Homo sapiens
[23] = tested on: BJ; assay: BJ-TERT-LT-ST fibroblast viability loss – cell-based, RAS-independent, luminescence, dose response (AID 1935); format: functional; conditions: Homo sapiens;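 also: BJ fibroblasts immortalized with TERT plus LT and ST oncogenes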
[24] = target: Luciferin 4-monooxygenase (Photinus pyralis, UniProt P08659); assay: inhibition of purified Photinus pyralis luciferase – biochemical, luminescence, dose response (AID 1891)
[25] = Luminescence Cell-Based Dose Confirmation HTS to Identify Inhibitors of Platelet Dense Granule Release. [Related pubchem assays: 1663 (Primary HTS), 1678 (Summary of Project)]; format: functional
[26] = target: T6, Small ubiquitin-related modifier 1 (Homo sapiens, UniProt P63165); assay: SUMO1 protein interaction blockers, potency – biochemical, fluorescence polarization, uHTS hits, dose response (AID 624382); format: functional; conditions: read-out: IC50_Mean
[27] = target: T6, Small ubiquitin-related modifier 1; assay: SUMO1 protein-protein binding blockers, potency – biochemical, FRET, dose response (AID 624383); format: functional; conditions: read-out: IC50_Mean
[28] = target: Eukaryotic translation initiation factor 4E (Mus musculus, UniProt P63073); assay: blockers of eIF4G binding by eIF4E – biochemical, TR-FRET, dose response (AID 855); format: functional;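 also: potency for disrupting eIF4E binding to eIF4GI seen as loss of FRET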
[29] = alpha-synuclein stem-loop luciferase translation blockers – H4 neuroglioma cells, luminescence, confirmation (AID 1988); format: functional, cell-based
[30] = Luminescence Cell-Based Dose Response HTS to Identify Inhibitors of 5'UTR Stem-Loop Driven Prion Protein mRNA Translation in H4 Neuroglioblastoma Cells. [Related pubchem assays: 1827 (Project Summary), 1813 (Primary HTS)]; format: functional
[31] = luciferase reporter signal suppression in cells – H4 neuroglioma cells, luminescence, dose response (AID 1990); format: functional, cell-based

Compound: Cc1ccc(-n2nc3ccc(NC(=O)c4ccc5c(c4)OCO5)cc3n2)cc1
- IC50 [1]: 73.3 µM (inactive)
- AC50 [2]: 4.47 µM (inconclusive)

Compound: N#CCC(=O)NC(=O)NCC1CC1
- AC50 [3]: 0.0126 µM (inconclusive)

Compound: CCN1CCN(c2ccc(N)c(C)c2)CC1
- IC50 [4]: 48.3 µM (active)
- AC50 [5]: 3.46 µM (active)

Compound: CCc1ccc(N(C(=O)c2csnn2)C(C(=O)NC(C)(C)C)c2cccnc2)cc1 (centres undefined)
- EC50 [6]: > 79.4 µM (not active)
- EC50 [7]: > 79.4 µM (not active)
- EC50 [8]: > 79.4 µM (not active)

Compound: O=C(N/N=C/c1ccco1)c1cccc(N2Cc3ccccc3C2)c1
- IC50 [9]: 3.75 µM (active)
- IC50 [10]: 4.27 µM (active)

Compound: COC(=O)C1=[N+]([O-])OC(C(=O)OC)C1c1c[nH]c2ccccc12 (centres undefined)
- Ki [11]: > 66.7 µM (inactive)

Compound: CSc1ccccc1NC(=O)COC(=O)CCC(=O)c1ccc(F)cc1
- AC50 [12]: > 30 µM (inactive)

Compound: COc1ccc(S(=O)(=O)N2CCOCC2)cc1NC(=O)CSc1n[nH]c(C(C)C)n1
- AC50 [12]: > 30 µM (inactive)

Compound: c1nc[nH]n1
- AC50 [3]: 31.6 µM (inconclusive)

Compound: CCc1csc(N2[C@H](C#N)[C@H](c3ccccc3-c3ccc(F)cc3)[C@H]2CO)n1
- AC50 [13]: 5.46 µM (active)
- AC50 [14]: 2.65 µM (active)
- AC50 [15]: 0.989 µM (active)
- AC50 [16]: 1.13 µM (active)

Compound: CCN(C(=O)Cc1c(C(=O)O)[nH]c2ccccc12)c1cc(OC)ccc1OC
- Ki [11]: 18.4 µM (inactive)

Compound: COc1ccc2c3c([nH]c2c1)[C@@H](CO)N(C(=O)CN(C)C)CC31CN(CC2CCCC2)C1
- AC50 [14]: 2.12 µM (active)
- AC50 [17]: 13.8 µM (active)

Compound: CN(C)CCCN(C(=O)c1ccc(N2C(=O)CCC2=O)cc1)c1nc2c(F)cccc2s1
- EC50 [6]: > 79.4 µM (not active)
- EC50 [7]: > 79.4 µM (not active)
- EC50 [18]: 0.471 µM (active)
- EC50 [19]: > 30 µM (not active)
- EC50 [8]: > 79.4 µM (not active)

Compound: COC(=O)[C@@H]1C[C@H]2CC[C@H](O)C[C@H]2N1CC1CC1
- AC50 [3]: 20 µM (inconclusive)

Compound: O=C(COC(=O)c1ccc2c(c1)C(=O)N(Cc1ccncc1)C2=O)Nc1ccccc1[N+](=O)[O-]
- IC50 [9]: 4.84 µM (active)

Compound: COc1ccc(S(=O)(=O)N2CCOc3ccccc32)cc1
- EC50 [20]: 55.9 µM (inconclusive)
- EC50 [21]: 13.1 µM (inconclusive)
- EC50 [22]: 14 µM (active)
- EC50 [23]: 10.3 µM (inconclusive)

Compound: Cc1ncsc1C(=O)Nc1nc2c(s1)CCCC2
- EC50 [20]: 20 µM (active)
- EC50 [24]: 3.81 µM (active)
- EC50 [21]: 20.9 µM (inconclusive)
- EC50 [22]: 18 µM (active)
- EC50 [25]: 3.99 µM (active)
- EC50 [23]: > 150 µM (not active)

Compound: O=C(Nc1ccc(Nc2ccccc2)cc1)c1ccc(Br)o1
- Ki [11]: > 66.7 µM (inactive)

Compound: COc1ccc(OC)c(-c2csc(NC(=O)Cn3[nH]c(=O)c4ccccc4c3=O)n2)c1
- IC50 [26]: > 66.6 µM (inactive)
- IC50 [27]: 100 µM (inactive)
- AC50 [12]: 28 µM (active)
- IC50 [28]: 50 µM (inactive)

Compound: Nc1ccc(-c2ccc(N)cc2)cc1 [BENZIDINE]
- IC50 [4]: 7.39 µM (active)
- AC50 [3]: 25.1 µM (inconclusive)

Compound: CN1CCN(C2Cc3cc(Cl)ccc3Sc3cc(F)ccc32)CC1 (centres undefined)
- AC50 [5]: 18.1 µM (active)
- EC50 [29]: 8.62 µM (active)
- EC50 [30]: > 120 µM (not active)
- EC50 [31]: > 120 µM (not active)

Compound: C[C@H](CO)N1C[C@H](C)[C@H](CN(C)S(=O)(=O)c2ccc([N+](=O)[O-])cc2)OCc2ccccc2-c2c(n(C)c3ccccc23)C1=O
- AC50 [13]: 0.308 µM (active)
- AC50 [14]: 1 µM (active)
- AC50 [15]: 0.305 µM (active)
- AC50 [16]: 0.476 µM (active)

Compound: CCn1cc(S(=O)(=O)Nc2ccccc2C(F)(F)F)cn1
- EC50 [6]: > 79.4 µM (not active)
- EC50 [7]: > 79.4 µM (not active)
- EC50 [8]: > 79.4 µM (not active)

Compound: CCN(CC)C(=O)CSc1nc2ncccc2[nH]1
- EC50 [6]: > 79.4 µM (not active)
- EC50 [7]: > 79.4 µM (not active)
- EC50 [8]: > 79.4 µM (not active)
